According to patent US20070172957A1, “Methods of identifying anti-inflammatory macrolides” (TAISHO PHARMACEUTICAL CO., LTD., priority 2004, published 2007):

Experiments:
[1] = Plasma AUC of clarithromycin after single administration to mice; format: in vivo; settings: C57black/6, mouse, oral, 50 mg/kg singly administered, read-out: plasma AUC0-8
Procedure: (§1) Administration of clarithromycin was carried out orally at the rate of 25, 50 or 100 […] twice daily (morning and evening) during the tobacco smoke exposure period. The plasma AUC0-8 of clarithromycin obtained when 50 mg/kg was singly administered to the mice was 2.677 μg·hr/ml while the plasma AUC0-8 of clarithromycin obtained when 200 mg of clarithromycin was singly administered to a normal human subject was 8.98 μg·hr/ml. The former concentration was substantially lower than the latter one and was an adequate concentration to be used clinically.

[2] = Plasma AUC of clarithromycin after single administration to a normal human subject; format: in vivo; settings: 200 mg singly administered, read-out: plasma AUC0-8
Procedure: as §1

A549 cells = experiment: Microarray of differentially expressed genes in A549 cells, +/- IL-1β, +/- Clarithromycin or FMA9045 (Appendix A); format: cell-based; settings: for Total # Differential Genes (95% confidence): A549, min fold change threshold 1.3
Source text: (§2) The data for each cell line (A549 and THP-1) are presented in Appendices A and B. For each cell line, the data for all of the hybridizations are represented together in the same table. For each hybridization, there are two columns: the weighted mean ratio (wtd mean ratio) and the minimum fold change (min fold change). The “min fold change” represents the minimum change in expression that meets the 95% confidence threshold. It can be estimated from the log ratio and standard deviation, assuming that the uncertainty in the ratio is normally distributed. […] See also Cheng Li and Wing Hung Wong, “Model-based analysis of oligonucleotide arrays: model validation, design issues and standard error application,” Genome Biology 2001 2(8):research0032.1-0032.11 (published 3 Aug. 2001).
(§3) The analysis method to generate these tables was similar for A549 and THP-1, cells. […] It is important to note that the fold change threshold is an absolute number, and the direction of change (increased or decreased expression) must be determined by the looking at the weighted mean ratio. The significance threshold criteria are included in parentheses in each “min fold change” column. The weighted mean ratios representing significant differentials (95% confidence, p value <0.05) are in bold. The “Spot IDs” correspond to publicly available cDNA sequences for the region of the gene represented at that spot on the microarray chip.
(§4) For the A549 and THP-1 cell lines (Appendix A and B, respectively), the first table for each cell line (“total differentials”) represents all of the genes that show differential expression in at least one of the hybridizations. The second table for A549 and THP-1 cells (“drug effects, sum ≧4.5” and “drug effects, sum ≧5”, respectively) has an additional final column, “sum of min fold change.” This column represents the sum of the minimum fold changes for all of the groups except the stimulus alone. This column was used to rank the genes in order of the greatest global drug effect, independent of whether the drug used was Clarithromycin or FMA9045 and independent of stimulus effect.
As noted above, a sum min fold change ≧4.5 was used as the threshold for ranking the most highly regulated drug effects. In both tables in Appendix A, the genes that meet this criterion (sum ≧4.5) are in bold, and those genes that are bold and italics are the most highly regulated genes and have a min fold change ≧5.0.

THP-1 cells = experiment: Microarray of differentially expressed genes in THP-1 cells, +/- LPS, +/- Clarithromycin or FMA9045 (Appendix B, Appendix F); format: cell-based; settings: for Total # Differential Genes (95% confidence): THP-1, min fold change threshold 1.5 (Clari), 1.3 (FMA)
Source text: as §2, §3, §4
For THP-1 cells, a sum min fold change ≧5.0 was used as the threshold for ranking the most highly regulated drug effects. In both tables in Appendix B, the genes that meet this criterion (sum ≧5) are in bold and in italics. A larger sum min fold change threshold was used for THP-1 cells, because the macrolide response in this cell line was more robust than that in A549 cells.
The influence of a macrolide compound on the level of expression of the gene of the material related to inflammatory disease of the lung is summarized in Appendix F. In Appendix F, ‘+/−Clari, wtd means’ denotes gene induction (suppression) when clarithromycin is added to THP-1 cells, and the larger the figure, the more the gene is expressed. Furthermore, ‘+LPS+/−Clari, wtd means’ denotes gene induction (suppression) when clarithromycin is added to LSP-stimulated THP-1 cells, and the smaller the figure, the more the gene expression is suppressed.

AUC(0-t) [1]: 2680 ng·h/mL
AUC(0-t) [2]: 8980 ng·h/mL
SMILES: CC[C@H]1OC(=O)[C@H](C)[C@@H](O[C@H]2C[C@@](C)(OC)[C@@H](O)[C@H](C)O2)[C@H](C)[C@@H](O[C@@H]2O[C@H](C)C[C@H](N(C)C)[C@H]2O)[C@](C)(OC)C[C@@H](C)C(=O)[C@H](C)[C@@H](O)[C@]1(C)O [clarithromycin]
Total # Differential Genes (95% confidence) (A549 cells; +/- drug alone): 117
Total # Differential Genes (95% confidence) (A549 cells; IL-1 +/- drug): 127
IL1b +/− clari, wtd mean ratio (A549 cells; A549 cells with IL1b stimulation, microarray expression ratio, gene = SpotID/GeneSymbol): 0.9
Clari treated, wtd mean ratio (A549 cells; A549 cells, Clari treated, no IL1, expression ratio of the gene/spot of the table line): 0.9
IL1b +/− clari, wtd mean ratio (A549 cells; A549 cells, IL1b stimulated, with vs without clari, gene/spot of the table line): 0.9
Clari treated, wtd mean ratio (A549 cells; A549 cells, microarray expression ratio, gene = SpotID/GeneSymbol): 0.9
Clari treated, wtd mean ratio (A549 cells; A549 cells, per microarray spot/gene, Clari treated, no IL1): 0.9
IL1b +/− clari, wtd mean ratio (A549 cells; A549 cells, per microarray spot/gene, IL1b stimulated, with vs without clari): 0.9
expression of SERPINB3 gene (THP-1 cells; Category 1, Appendix F): enhancing the expression
Total # Differential Genes (95% confidence) (THP-1 cells; +/- drug alone): 127
Total # Differential Genes (95% confidence) (THP-1 cells; LPS +/- drug): 120
LPS +/− clari, wtd mean ratio (THP-1 cells; THP-1 cells with LPS, gene given in each table row): 0.9
LPS +/− clari, wtd mean ratio (THP-1 cells; THP-1 cells, LPS stimulated, with vs without clari, gene/spot = table row): 0.9
Clari treated, wtd mean ratio (THP-1 cells; THP-1 cells, no LPS, gene given in each table row): 0.9
Clari treated, wtd mean ratio (THP-1 cells; THP-1 cells, microarray expression ratio, gene/spot = table row): 0.9
expression of proteinase genes (MMP12, MMP9, MMP19, cathepsin K, cathepsin C) (THP-1 cells; induced during inflammatory stimulation, Category 2): suppresses the expression
expression of the chemokine gene (THP-1 cells; induced during inflammatory stimulation, Category 3): suppresses expression
